According to ChEMBL document CHEMBL1201862, “PubChem BioAssay data set” (2004):
Several values for one entry are separate records, joined by “and”; a condition that tells them apart may be missing. Equal entries are not always repeated. Structures can show the parent of a compound that is named as a salt.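 How tested: cells in 96-well plates exposed to compound for 48 hours at five concentrations. The concentration for 50% growth inhibition is given as GI50.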 Activity calls are given as the source filed them. No stated cut-off is given here; in the data, active = GI50 up to about 1.1 µM and inactive = higher.

Assays:
Assay in all cases: inhibition of tumour cell growth, NCI panel, 48 h
ACHN = test system: ACHN
BT-549 = test system: BT-549
CAKI-1 = test system: CAKI-1
CCRF-CEM = test system: CCRF-CEM
COLO 205 = test system: COLO 205
DLD-1 = test system: DLD-1
DMS-114 = test system: DMS-114
DMS-273 = test system: DMS-273
DU-145 = test system: DU-145
EKVX = test system: EKVX
HCC 2998 = test system: HCC 2998
HCT-116 = test system: HCT-116
HL-60 = test system: HL-60
HOP-18 = test system: HOP-18
HOP-62 = test system: HOP-62
HOP-92 = test system: HOP-92
HT-29 = test system: HT-29
Hs-578T = test system: Hs-578T
KM-20L2 = test system: KM-20L2
LOX IMVI = test system: LOX IMVI
LXFL 529 = test system: LXFL 529
M19-MEL = test system: M19-MEL
MCF7 = test system: MCF7
MDA-MB-231 = test system: MDA-MB-231
MDA-MB-435 = test system: MDA-MB-435
MDA-N = test system: MDA-N
MOLT-4 = test system: MOLT-4
NCI-H460 = test system: NCI-H460
NCI/ADR-RES = test system: NCI/ADR-RES
OVCAR-3 = test system: OVCAR-3
OVCAR-5 = test system: OVCAR-5
OVCAR-8 = test system: OVCAR-8
RPMI-8226 = test system: RPMI-8226
RXF 631 = test system: RXF 631
SF-268 = test system: SF-268
SF-295 = test system: SF-295
SF-539 = test system: SF-539
SK-MEL-28 = test system: SK-MEL-28
SK-MEL-5 = test system: SK-MEL-5
SN12C = test system: SN12C
SNB-75 = test system: SNB-75
SNB-78 = test system: SNB-78
SR = test system: SR
SW-620 = test system: SW-620
T47D = test system: T47D
TK-10 = test system: TK-10
UACC-257 = test system: UACC-257
UACC-62 = test system: UACC-62
UO-31 = test system: UO-31
XF498 = test system: XF498

Nc1ccc2cc3ccc(N)cc3nc2c1 [PROFLAVINE SULFATE]
GI50 (ACHN): 789 nM (active) and 537 nM (active) | GI50 (BT-549): 3.19 µM (inactive) | GI50 (CAKI-1): 2.18 µM (inactive) and 1.82 µM (inactive) | GI50 (CCRF-CEM): 508 nM (active) and 601 nM (active) | GI50 (COLO 205): 561 nM (active) and 543 nM (active) | GI50 (DLD-1): 0.771 µM (active) | GI50 (DMS-114): 1.21 µM (inactive) | GI50 (DMS-273): 0.839 µM (active) | GI50 (DU-145): 2.21 µM (inactive) | GI50 (EKVX): 1.24 µM (inactive) | GI50 (HCC 2998): 794 nM (active) and 1.09 µM (active) | GI50 (HCT-116): 366 nM (active) and 405 nM (active) | GI50 (HL-60): 2.62 µM (inactive) and 1.67 µM (inactive) | GI50 (HOP-18): 2.76 µM (inactive) | GI50 (HOP-62): 2.47 µM (inactive) and 2.21 µM (inactive) | GI50 (HOP-92): 1.45 µM (inactive) and 2.49 µM (inactive) | GI50 (HT-29): 953 nM (active) and 668 nM (active) | GI50 (Hs-578T): 2.57 µM (inactive) | GI50 (KM-20L2): 0.767 µM (active) | GI50 (LOX IMVI): 789 nM (active) and 764 nM (active) | GI50 (LXFL 529): 0.953 µM (active) | GI50 (M19-MEL): 1.79 µM (inactive) | GI50 (MCF7): 0.638 µM (active) | GI50 (MDA-MB-231): 1.62 µM (inactive) | GI50 (MDA-MB-435): 1.48 µM (inactive) | GI50 (MDA-N): 1.21 µM (inactive) | GI50 (MOLT-4): 338 nM (active) and 284 nM (active) | GI50 (NCI-H460): 528 nM (active) and 485 nM (active) | GI50 (NCI/ADR-RES): 1.58 µM (inactive) | GI50 (OVCAR-3): 2.77 µM (inactive) and 1.51 µM (inactive) | GI50 (OVCAR-5): 3.05 µM (inactive) | GI50 (OVCAR-8): 1.09 µM (active) and 995 nM (active) | GI50 (RPMI-8226): 1.58 µM (inactive) and 1.43 µM (inactive) | GI50 (RXF 631): 1.12 µM (inactive) | GI50 (SF-268): 1.32 µM (inactive) and 2.19 µM (inactive) | GI50 (SF-295): 2.45 µM (inactive) and 1.94 µM (inactive) | GI50 (SF-539): 1.26 µM (inactive) and 1.16 µM (inactive) | GI50 (SK-MEL-28): 2.45 µM (inactive) and 1.88 µM (inactive) | GI50 (SK-MEL-5): 1.61 µM (inactive) and 1.38 µM (inactive) | GI50 (SN12C): 843 nM (active) and 1.04 µM (active) | GI50 (SNB-75): 1.59 µM (inactive) and 1.16 µM (inactive) | GI50 (SNB-78): 1.12 µM (active) | GI50 (SR): 0.444 µM (active) | GI50 (SW-620): 494 nM (active) and 397 nM (active) | GI50 (T47D): 1.59 µM (inactive) | GI50 (TK-10): 2.7 µM (inactive) and 4.33 µM (inactive) | GI50 (UACC-257): 1.87 µM (inactive) and 1.49 µM (inactive) | GI50 (UACC-62): 1.56 µM (inactive) and 1.6 µM (inactive) | GI50 (UO-31): 690 nM (active) and 652 nM (active) | GI50 (XF498): 1.53 µM (inactive)
